Among the data in patent US20090209578A1, “CHEMICAL COMPOUNDS” (PFIZER INC, priority 2005, published 2009) are IC50 values, retold here.

The structures appear in SMILES notation. Like-named read-outs stand apart in the source and are kept apart here.

The target in this assay is HIV-1 fusion (gp160 induced cell-cell fusion; HeLa P4 cell line expressing CCR5 and CD4 / CHO-Tat10 cell line) (Homo sapiens, UniProt P51681). Put plainly: gp160 induced cell-cell fusion assay. In kind it is cell-based. Conditions: HeLa P4 / CHO-Tat10 cells. The text has this: Biol., 60, 147-52 (1996); and/or by using the intracellular calcium mobilisation assays as described by the same authors, and/or inhibiting cell fusion following procedures disclosed in Bradley et al., J Biomol Screen 9, 516-24 (2004).
Sequence of HIV-1 fusion (gp160 induced cell-cell fusion; HeLa P4 cell line expressing CCR5 and CD4 / CHO-Tat10 cell line) (P51681 whole entry, the tested form may be a part): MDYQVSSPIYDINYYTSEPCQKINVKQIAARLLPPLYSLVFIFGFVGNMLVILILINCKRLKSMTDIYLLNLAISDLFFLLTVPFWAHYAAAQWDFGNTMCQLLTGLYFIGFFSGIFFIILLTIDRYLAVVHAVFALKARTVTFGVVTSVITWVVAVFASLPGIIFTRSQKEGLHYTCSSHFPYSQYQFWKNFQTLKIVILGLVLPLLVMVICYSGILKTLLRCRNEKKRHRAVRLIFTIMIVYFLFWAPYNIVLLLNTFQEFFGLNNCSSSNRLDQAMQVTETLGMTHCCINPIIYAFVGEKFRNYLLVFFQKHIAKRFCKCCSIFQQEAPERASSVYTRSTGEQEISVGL
The gp160 induced cell-cell fusion assay uses a HeLa P4 cell line and a CHO-Tat10 cell line.
The HeLa P4 cell line expresses CCR5 and CD4 and has been transfected with HIV-1 LTR-β-Galactosidase. The media for this cell line is Dulbecco modified eagle's medium (D-MEM) (without L-glutamine) containing 10% foetal calf serum (FCS), 2 mM L-glutamine, penicillin/streptomycin (Pen/Strep; 100 U/mL penicillin+[…] streptomycin), and 1 μg/ml puromycin.
The CHO cell line is a Tat (transcriptional trans activator)-expressing clone from a CHO JRR17.1 cell line that has been transfected with pTat puro plasmid. The media for this cell line is rich medium for mammalian cell culture originally developed at Roswell Park Memorial Institute RPMI1640 (without L-glutamine) containing 10% FCS, 2 mM L-glutamine, 0.5 mg/ml Hygromycin B and 12 µg/ml puromycin. The CHO JRR17.1 line expresses gp160 (JRFL) and is a clone that has been selected for its ability to fuse with a CCR5/CD4 expressing cell line.
Upon cell fusion, Tat present in the CHO cell is able to transactivate the HIV-1 long terminal repeat (LTR) present in the HeLa cell leading to the expression of the β-Galactosidase enzyme. This expression is then measured using a Fluor Ace™ β-Galactosidase reporter assay kit (Bio-Rad cat no. 170-3150). This kit is a quantitative fluorescent assay that determines the level of expression of β-galactosidase using 4-methylumbelliferyl-galactopyranoside (MUG) as substrate. β-Galactosidase hydrolyses the fluorogenic substrate resulting in release of the fluorescent molecule 4-methylumbelliferone (4MU). Fluorescence of 4-methylumbelliferone is then measured on a fluorometer using an excitation wavelength of 360 nm and emission wavelength of 460 nm.
Compounds that inhibit fusion will give rise to a reduced signal and, following solubilisation in an appropriate solvent and dilution in culture medium, a dose-response curve for each compound can be used to calculate IC50 values.

As to `CC(=O)N1CCc2nc(C)n(C3CCN(C(C)C[C@H](NC(=O)C4CC4)c4cccc(F)c4)CC3)c2C1` (stereo partly drawn) [Example 60], the half-inhibitory concentration (IC50) (in general, the midpoint of a concentration-inhibition curve) (read-out: IC50) was 0.6 nM. Same read-out and setting: to `CC(=O)N1CCc2nc(C)n(C3CCN(C(C)C[C@H](NC(=O)OC(C)C)c4cccc(F)c4)CC3)c2C1` (stereo partly drawn) [Example 61] belongs 1.6 nM. Regarding `CCC(=O)N[C@@H](CC(C)N1CCC(n2c(C)nc3c2CN(C(C)=O)CC3)CC1)c1cccc(F)c1` (stereo partly drawn) [Example 62, N-[(1S)-3-[4-(5-acetyl-2-methyl-4,5,6,7-tetrahydro-3H-imidazo[4,5-c]pyridin-3-yl)piperidin-1-yl]-1-(3-fluorophenyl)butyl]propanamide], the 50% inhibitory concentration (IC50) (IC50 (nM)) was determined as 1 nM. With `CC(=O)N1CCc2nc(C)n(C3CCN(C(C)C[C@H](NC(=O)OC(C)C)c4ccccc4)CC3)c2C1` (stereo partly drawn) [Example 63], the IC50 (read-out: IC50) was 1.8 nM. With `CC(=O)N[C@@H](CC(C)N1CCC(n2c(C)nc3c2CN(C(=O)C(C)C)CC3)CC1)c1cccc(F)c1` (stereo partly drawn) [Example 64], for the setting “read-out: IC50”, the IC50 was 2 nM. As to `CCC(=O)N[C@@H](CC(C)N1CCC(n2c(C)nc3c2CN(C(=O)C(C)C)CC3)CC1)c1cccc(F)c1` (stereo partly drawn) [Example 65], the half-inhibitory concentration (IC50) (read-out: IC50) worked out at 0.6 nM. Take `CCOC(=O)N1CCc2nc(C)n(C3CCN(C(C)C[C@H](NC(C)=O)c4cccc(F)c4)CC3)c2C1` (stereo partly drawn) [Example 66, Ethyl 3-{1-[(3S)-3-(acetylamino)-3-(3-fluorophenyl)-1-methylpropyl]piperidin-4-yl}-2-methyl-3,4,6,7-tetrahydro-5H-imidazo[4,5-c]pyridine-5-carboxylate]: the IC50 (read-out: IC50) came out at 3.5 nM. Still for that read-out and setting: to `CCC(=O)N[C@@H](CC(C)N1CCC(n2c(C)nc3c2CN(C(=O)OC)CC3)CC1)c1cccc(F)c1` (stereo partly drawn) [Example 67] belongs 0.2 nM; to `CCCC(=O)N[C@@H](CC(C)N1CCC(n2c(C)nc3c2CN(C(=O)OC)CC3)CC1)c1cccc(F)c1` (stereo partly drawn) [Example 69, Methyl 3-{1-[(3S)-3-(butyrylamino)-3-(3-fluorophenyl)-1-methylpropyl]piperidin-4-yl}-2-methyl-3,4,6,7-tetrahydro-5H-imidazo[4,5-c]pyridine-5-carboxylate], 0.2 nM. With `COC(=O)N1CCc2c(nc(C)n2C2CCN(C(C)C[C@H](NC(=O)C3CC(F)(F)C3)c3cccc(F)c3)CC2)C1` (stereo partly drawn) [Example 80, Methyl 1-{1-[(3S)-3-{[(3,3-difluorocyclobutyl)carbonyl]amino}-3-(3-fluorophenyl)-1-methylpropyl]piperidin-4-yl}-2-methyl-1,4,6,7-tetrahydro-5H-imidazo[4,5-c]pyridine-5-carboxylate], under “read-out: IC50”, the half-maximal inhibitory concentration (IC50) was found to be 0.2 nM. Same read-out and setting: the result for `CCC(=O)N[C@@H](CC(C)N1CCC(n2c(C)nc3c2CCN(C(=O)OC)C3)CC1)c1cccc(F)c1` (stereo partly drawn) [Example 91] reads 102 nM. Regarding `CCC(=O)N[C@@H](CC(C)N1CCC(n2c(C)nc3c2CCN(C(=O)OC)C3)CC1)c1ccccc1` (stereo partly drawn) [Example 92, methyl 2-methyl-1-{1-[(3S)-1-methyl-3-phenyl-3-(propionylamino)propyl]piperidin-4-yl}-1,4,6,7-tetrahydro-5H-imidazo[4,5-c]pyridine-5-carboxylate], half-maximal inhibition (IC50 (nM)) (IC50) required 0.4 nM. The same measure, in the same setting: the result for `CC(=O)N1CCc2c(nc(C)n2C2CCN(C(C)C[C@H](NC(=O)C(C)C)c3cccc(F)c3)CC2)C1` (stereo partly drawn) [Example 94, N-[(1S)-3-[4-(5-acetyl-2-methyl-4,5,6,7-tetrahydro-1H-imidazo[4,5-c]pyridin-1-yl)piperidin-1-yl]-1-(3-fluorophenyl)butyl]-2-methylpropanamide] reads 0.2 nM.

In the case of `CC(=O)N1CCc2c(nc(C)n2C2CCN(C(C)C[C@H](NC(=O)C3CC3)c3cccc(F)c3)CC2)C1` (stereo partly drawn) [Example 103], under “read-out: IC50”, the IC50 is 0.2 nM. In turn, `CCC(=O)N[C@@H](CC(C)N1CCC(n2c(C)nc3c2CCN(C(C)=O)C3)CC1)c1cccc(F)c1` (stereo partly drawn) [Example 104, N-[(1S)-3-[4-(5-acetyl-2-methyl-4,5,6,7-tetrahydro-1H-imidazo[4,5-c]pyridin-1-yl)piperidin-1-yl]-1-(3-fluorophenyl)butyl]propanamide] gave an IC50 (IC50 (nM)) of 0.8 nM. For the molecule `CC(C)c1noc(C2CCN(C(C)C[C@H](NC(=O)C3CCC3)c3ccccc3)CC2)n1` (stereo partly drawn) [Example 105, N-{(1S)-3-[4-(3-isoPropyl-1,2,4-oxadiazol-5-yl)piperidin-1-yl]-1-phenylbutyl}cyclobutanecarboxamide], the IC50 (read-out: IC50) was 94.6 nM. On the same count and under the same terms, to `CC(C)c1nccn1C1CCN(C(C)C[C@H](NC(=O)C2CCC(F)(F)CC2)c2ccccc2)CC1` (stereo partly drawn) [Example 111, 4,4-Difluoro-N-{(1S)-3-[4-(2-isopropyl-1H-imidazol-1-yl)piperidin-1-yl]-1-phenylbutyl}cyclohexanecarboxamide] belongs 0.2 nM. Still for that read-out and setting: to `Cc1nccn1C1CCN(C(C)C[C@H](NC(=O)C2CCC(F)(F)CC2)c2ccccc2)CC1` (stereo partly drawn) [Example 112, 4,4-Difluoro-N-{(1S)-3-[4-(2-methyl-1H-imidazol-1-yl)piperidin-1-yl]-1-phenylbutyl}cyclohexanecarboxamide] belongs 1 nM.
